Measurements from patent US10131652B2, “Pyrimidinyloxy benzene derivatives as herbicides” (E. I. DU PONT DE NEMOURS AND COMPANY, priority 2014, dated 2018).
Read-outs that look alike come from different tables or passages of the source.

Assays:
Experiment in all cases: Test E pre-/postemergence plant response
Type in all cases: in vivo
[1] = test system: winter wheat (Triticum aestivum); settings: scale 0 to 100, read-out: Plant response rating, Wheat, Winter; for plant injury at 16 g/ha: 16 g ai/ha; for plant injury at 62 g/ha: 62 g ai/ha; for plant injury at 125 g/ha: 125 g ai/ha
Summary of the method: (§1)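 Visual scores on a 0–100 scale (100 = complete control) were assigned against untreated controls 7–21 days after treatment in a controlled environment. Compounds, formulated with solvent plus surfactant, were applied to pre-emergence silt-loam sowings or to 1- to 4-leaf plants (2–18 cm) in potting medium.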

[2] = test system: galium (catchweed bedstraw, Galium aparine); settings: scale 0 to 100, read-out: Plant response rating, Galium; for pest or weed control at 16 g/ha: 16 g ai/ha; for pest or weed control at 31 g/ha: 31 g ai/ha; for pest or weed control at 62 g/ha: 62 g ai/ha; for pest or weed control at 125 g/ha: 125 g ai/ha
Summary of the method: as §1

[3] = test system: spring barley (Hordeum vulgare); settings: for plant injury at 16 g/ha: 16 g ai/ha; for plant injury at 31 g/ha: 31 g ai/ha; for plant injury at 62 g/ha: 62 g ai/ha; for plant injury at 125 g/ha: 125 g ai/ha
Summary of the method: as §1

[4] = test system: bluegrass (annual bluegrass, Poa annua); settings: scale 0 to 100, read-out: Plant response rating, Bluegrass; for pest or weed control at 16 g/ha: 16 g ai/ha; for pest or weed control at 31 g/ha: 31 g ai/ha; for pest or weed control at 62 g/ha: 62 g ai/ha; for pest or weed control at 125 g/ha: 125 g ai/ha
Summary of the method: as §1

[5] = test system: lambsquarters (Chenopodium album); settings: scale 0 to 100, read-out: Plant response rating, Lambsquarters; for pest or weed control at 16 g/ha: 16 g ai/ha; for pest or weed control at 31 g/ha: 31 g ai/ha; for pest or weed control at 62 g/ha: 62 g ai/ha; for pest or weed control at 125 g/ha: 125 g ai/ha
Summary of the method: as §1

[6] = test system: speedwell (bird's-eye speedwell, Veronica persica); settings: scale 0 to 100, read-out: Plant response rating, Speedwell; for pest or weed control at 16 g/ha: 16 g ai/ha; for pest or weed control at 62 g/ha: 62 g ai/ha; for pest or weed control at 125 g/ha: 125 g ai/ha
Summary of the method: as §1

[7] = test system: wild radish (Raphanus raphanistrum); settings: scale 0 to 100, read-out: Plant response rating, Radish, Wild; for pest or weed control at 16 g/ha: 16 g ai/ha; for pest or weed control at 31 g/ha: 31 g ai/ha; for pest or weed control at 62 g/ha: 62 g ai/ha; for pest or weed control at 125 g/ha: 125 g ai/ha
Summary of the method: as §1

[8] = test system: field violet (Viola arvensis); settings: scale 0 to 100, read-out: Plant response rating, Field Violet; for pest or weed control at 16 g/ha: 16 g ai/ha; for pest or weed control at 31 g/ha: 31 g ai/ha; for pest or weed control at 62 g/ha: 62 g ai/ha; for pest or weed control at 125 g/ha: 125 g ai/ha
Summary of the method: as §1

[9] = test system: chickweed (common chickweed, Stellaria media); settings: scale 0 to 100, read-out: Plant response rating, Chickweed; for pest or weed control at 16 g/ha: 16 g ai/ha; for pest or weed control at 31 g/ha: 31 g ai/ha; for pest or weed control at 62 g/ha: 62 g ai/ha; for pest or weed control at 125 g/ha: 125 g ai/ha
Summary of the method: as §1

[10] = test system: spring wheat (Triticum aestivum); settings: scale 0 to 100, read-out: Plant response rating, Wheat, Spring; for plant injury at 16 g/ha: 16 g ai/ha; for plant injury at 62 g/ha: 62 g ai/ha; for plant injury at 125 g/ha: 125 g ai/ha
Summary of the method: as §1

[11] = test system: Italian ryegrass (Lolium multiflorum); settings: scale 0 to 100, read-out: Plant response rating, Ryegrass, Italian; for pest or weed control at 16 g/ha: 16 g ai/ha; for pest or weed control at 31 g/ha: 31 g ai/ha; for pest or weed control at 62 g/ha: 62 g ai/ha; for pest or weed control at 125 g/ha: 125 g ai/ha
Summary of the method: as §1

[12] = post-emergence, 31 g ai/ha, Postemergence
[13] = post-emergence, Postemergence, scale 0 to 100, read-out: Plant response rating, Barley, Spring
[14] = pre-emergence, Preemergence, scale 0 to 100, read-out: Plant response rating, Barley, Spring

Fc1cccc(Oc2ncc(Br)cn2)c1-c1cc(C(F)F)no1 [Compound 145, 5-bromo-2-[2-[3-(difluoromethyl)-5-isoxazolyl]-3-fluorophenoxy]pyrimidine]
plant injury at 16 g/ha ([1]; post-emergence, Postemergence): 15% | plant injury at 31 g/ha [1, 12]: 20% | plant injury at 62 g/ha ([1]; post-emergence, Postemergence): 35% | plant injury at 125 g/ha ([1]; post-emergence, Postemergence): 55% | plant injury at 16 g/ha ([1]; pre-emergence, Preemergence): 0% | plant injury at 62 g/ha ([1]; pre-emergence, Preemergence): 25% | plant injury at 125 g/ha ([1]; pre-emergence, Preemergence): 75% | pest or weed control at 16 g/ha ([2]; post-emergence, Postemergence): 95% | pest or weed control at 31 g/ha ([2]; post-emergence, Postemergence): 95% | pest or weed control at 62 g/ha ([2]; post-emergence, Postemergence): 98% | pest or weed control at 125 g/ha ([2]; post-emergence, Postemergence): 100% | pest or weed control at 16 g/ha ([2]; pre-emergence, Preemergence): 25% | pest or weed control at 31 g/ha ([2]; pre-emergence, Preemergence): 100% | pest or weed control at 62 g/ha ([2]; pre-emergence, Preemergence): 100% | pest or weed control at 125 g/ha ([2]; pre-emergence, Preemergence): 100% | plant injury at 16 g/ha [3, 13]: 15% | plant injury at 31 g/ha [3, 13]: 15% | plant injury at 62 g/ha [3, 13]: 20% | plant injury at 125 g/ha ([3]; post-emergence, Postemergence, scale 0 to 100 (0 no effect, 100 complete control), read-out: Plant response rating, Barley, Spring): 30% | plant injury at 16 g/ha [3, 14]: 15% | plant injury at 31 g/ha [3, 14]: 25% | plant injury at 62 g/ha [3, 14]: 45% | plant injury at 125 g/ha [3, 14]: 80% | pest or weed control at 16 g/ha ([4]; post-emergence, Postemergence): 15% | pest or weed control at 31 g/ha ([4]; post-emergence, Postemergence): 60% | pest or weed control at 62 g/ha ([4]; post-emergence, Postemergence): 65% | pest or weed control at 125 g/ha ([4]; post-emergence, Postemergence): 70% | pest or weed control at 16 g/ha ([4]; pre-emergence, Preemergence): 0% | pest or weed control at 31 g/ha ([4]; pre-emergence, Preemergence): 0% | pest or weed control at 62 g/ha ([4]; pre-emergence, Preemergence): 10% | pest or weed control at 125 g/ha ([4]; pre-emergence, Preemergence): 90% | pest or weed control at 16 g/ha ([5]; post-emergence, Postemergence): 90% | pest or weed control at 31 g/ha ([5]; post-emergence, Postemergence): 90% | pest or weed control at 62 g/ha ([5]; post-emergence, Postemergence): 95% | pest or weed control at 125 g/ha ([5]; post-emergence, Postemergence): 95% | pest or weed control at 16 g/ha ([5]; pre-emergence, Preemergence): 100% | pest or weed control at 31 g/ha ([5]; pre-emergence, Preemergence): 100% | pest or weed control at 62 g/ha ([5]; pre-emergence, Preemergence): 100% | pest or weed control at 125 g/ha ([5]; pre-emergence, Preemergence): 100% | pest or weed control at 16 g/ha ([6]; post-emergence, Postemergence): 100% | pest or weed control at 31 g/ha [6, 12]: 100% | pest or weed control at 62 g/ha ([6]; post-emergence, Postemergence): 100% | pest or weed control at 125 g/ha ([6]; post-emergence, Postemergence): 100% | pest or weed control at 16 g/ha ([6]; pre-emergence, Preemergence): 95% | pest or weed control at 62 g/ha ([6]; pre-emergence, Preemergence): 100% | pest or weed control at 125 g/ha ([6]; pre-emergence, Preemergence): 100% | pest or weed control at 16 g/ha ([7]; post-emergence, Postemergence): 95% | pest or weed control at 31 g/ha ([7]; post-emergence, Postemergence): 100% | pest or weed control at 62 g/ha ([7]; post-emergence, Postemergence): 100% | pest or weed control at 125 g/ha ([7]; post-emergence, Postemergence): 100% | pest or weed control at 16 g/ha ([7]; pre-emergence, Preemergence): 15% | pest or weed control at 31 g/ha ([7]; pre-emergence, Preemergence): 15% | pest or weed control at 62 g/ha ([7]; pre-emergence, Preemergence): 85% | pest or weed control at 125 g/ha ([7]; pre-emergence, Preemergence): 100% | pest or weed control at 16 g/ha ([8]; post-emergence, Postemergence): 65% | pest or weed control at 31 g/ha ([8]; post-emergence, Postemergence): 100% | pest or weed control at 62 g/ha ([8]; post-emergence, Postemergence): 90% | pest or weed control at 125 g/ha ([8]; post-emergence, Postemergence): 100% | pest or weed control at 16 g/ha ([8]; pre-emergence, Preemergence): 100% | pest or weed control at 31 g/ha ([8]; pre-emergence, Preemergence): 100% | pest or weed control at 62 g/ha ([8]; pre-emergence, Preemergence): 100% | pest or weed control at 125 g/ha ([8]; pre-emergence, Preemergence): 100% | pest or weed control at 16 g/ha ([9]; post-emergence, Postemergence): 80% | pest or weed control at 31 g/ha ([9]; post-emergence, Postemergence): 85% | pest or weed control at 62 g/ha ([9]; post-emergence, Postemergence): 100% | pest or weed control at 125 g/ha ([9]; post-emergence, Postemergence): 95% | pest or weed control at 16 g/ha ([9]; pre-emergence, Preemergence): 100% | pest or weed control at 31 g/ha ([9]; pre-emergence, Preemergence): 100% | pest or weed control at 62 g/ha ([9]; pre-emergence, Preemergence): 100% | pest or weed control at 125 g/ha ([9]; pre-emergence, Preemergence): 100% | plant injury at 16 g/ha ([10]; post-emergence, Postemergence): 30% | plant injury at 31 g/ha [10, 12]: 35% | plant injury at 62 g/ha ([10]; post-emergence, Postemergence): 45% | plant injury at 125 g/ha ([10]; post-emergence, Postemergence): 55% | plant injury at 16 g/ha ([10]; pre-emergence, Preemergence): 15% | plant injury at 62 g/ha ([10]; pre-emergence, Preemergence): 20% | plant injury at 125 g/ha ([10]; pre-emergence, Preemergence): 70% | pest or weed control at 16 g/ha ([11]; post-emergence, Postemergence): 5% | pest or weed control at 31 g/ha ([11]; post-emergence, Postemergence): 10% | pest or weed control at 62 g/ha ([11]; post-emergence, Postemergence): 25% | pest or weed control at 125 g/ha ([11]; post-emergence, Postemergence): 40% | pest or weed control at 16 g/ha ([11]; pre-emergence, Preemergence): 10% | pest or weed control at 31 g/ha ([11]; pre-emergence, Preemergence): 20% | pest or weed control at 62 g/ha ([11]; pre-emergence, Preemergence): 50% | pest or weed control at 125 g/ha ([11]; pre-emergence, Preemergence): 70%
